The assay relates to CEM cells HIV-1 protection, formazan growth assay. Description: NCI AIDS Antiviral Assay. Particulars: for IC50: measured here: growth of uninfected CEM cells. In short, it runs like this: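 CEM (human) cells, HIV-1 infected vs uninfected, 5-point dosing, formazan growth read-out. Retest threshold 50% protection.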

Structures are written as SMILES. The source made the active and inactive calls.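 Rule for the calls: active = compounds giving half or more protection of infected cells from virus-caused growth loss, again on retest; inactive = the rest.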

On to `Cc1c(-c2ccccc2)nn2cc(-c3ccccc3)nnc12`, for which the EC50 – broadly, the concentration needed to bring the measured effect to its halfway point – is greater than 200 µM and the concentration for half-maximal inhibition (IC50) (commonly the concentration needed to halve the response being measured) amounted to 11 µM.

Consider `NC(Cc1ccc(OCc2ccccc2)cc1)C(=O)NC(Cc1ccccc1)C(=O)Oc1c(Cl)c(Cl)c(Cl)c(Cl)c1Cl` (centres undefined), for which the EC50 was greater than 200 µM and the IC50 was 28.8 µM. The corresponding values for `CC(=O)O[C@H]1[C@@H]2CC(C)(C)CC2=C(C=O)C2(C=O)CC12C` (some centres undefined) are greater than 200 µM and 13.5 µM. As for `O=C1OCCC[C@H]2O[C@@H](COCc3ccccc3)C[C@@H]12`, the EC50 was greater than 200 µM and the IC50 was greater than 200 µM. On to `O=[N+]([O-])c1cc2c(cc1O)[nH]c1cccc([N+](=O)[O-])c12`, for which the EC50 was greater than 13.8 µM and the IC50 is greater than 13.8 µM.

`Cc1ccccc1NC(=O)c1c(C)oc2c1C(=O)c1ccccc1C2=O`: the EC50 is greater than 39.8 µM and the IC50 is greater than 39.8 µM. As for `O=C(/C=C/c1ccc(OCCCOc2ccc(/C=C/C(=O)c3ccc(Cl)cc3)cc2)cc1)c1ccc(Cl)cc1`, the EC50 is greater than 12.9 µM and the IC50 was greater than 12.9 µM. Regarding `CCOC(=O)/C(=C\c1ccc(F)cc1)[Se]c1ccccc1`, the EC50 is greater than 38.9 µM and the half-inhibitory concentration (IC50) is greater than 38.9 µM. For the compound `COC(=O)c1cc2cc(CS(=O)(=O)O)ccc2cc1O`, the EC50 was greater than 200 µM and the 50% inhibitory concentration (IC50) worked out at 102 µM.

Consider `COc1ccc2nc3c4ccccc4scc-3c2c1`, for which the EC50 was greater than 200 µM and the concentration for half-maximal inhibition (IC50) worked out at 0.295 µM. The corresponding values for `O=c1oc2c3c4c(cc2c2c1CCC2)CCCN4CCC3` are greater than 6.76 µM and greater than 6.76 µM. Taken in the same sequence, the figures for `O=C1C(=O)N(c2ccc(Cl)cc2Cl)C(=O)C(=O)C1c1nc2ccccc2o1` were greater than 85.1 µM and greater than 85.1 µM. With `CCOC(=O)C(=CNC(=S)N=Nc1c(O)[nH]c2ccccc12)C(=O)OCC`, the EC50 is greater than 200 µM and the IC50 stood at 70.8 µM. Taken in the same sequence, the figures for `CC1=C(C(=O)Nc2ccccc2C)C(c2ccccc2O)C(C(=O)Nc2ccccc2C)=C(C)N1` were 9.55 µM and 15.5 µM.

On to `CC(=O)/C(=C/c1ccccc1[N+](=O)[O-])C(=O)c1ccccc1`, for which the EC50 was greater than 24.5 µM and the concentration for half-maximal inhibition (IC50) worked out at 2.09 µM.

On to `CCOP(=O)(OCC)C1C(=O)O[C@H]2CCCC[C@@H]12` (some centres undefined), for which the result was inactive. For `CN1CCN(c2cc3c(cc2F)c(=O)c(C(=O)O)cn3C2CC2)CC1CC#N` (centres undefined), the EC50 was greater than 200 µM and the half-maximal inhibitory concentration (IC50) turned out to be 148 µM. `c1ccc(CSC(SCc2ccccc2)c2ccccc2)cc1`: the EC50 was greater than 200 µM and the half-inhibitory concentration (IC50) is greater than 200 µM. In the case of `CC(C)CCC[C@@H](C)[C@H]1CC[C@H]2[C@@H]3CC[C@H]4C[C@@H](CC/C=C(/c5ccc(OCc6ccccc6B(O)O)c(C(=O)O)c5)c5cc(Cl)c(OCc6ccccc6B(O)O)c(C(=O)O)c5)CC[C@]4(C)[C@H]3CC[C@]12C`, the EC50 is greater than 200 µM and the IC50 was greater than 200 µM. In the case of `O=C1CCCC2=C1CC1=C(CCCC1=O)N2c1ccccc1C(=O)O`, the EC50 is greater than 200 µM and the IC50 was greater than 200 µM. Regarding `Cc1cn(C2CC(N(O)C3C4CC5CC(C4)CC3C5)C(CO)O2)c(=O)[nH]c1=O` (centres undefined), the EC50 was greater than 200 µM and the IC50 came out at 120 µM.

In the case of `Cc1ccc([N+](=O)[O-])cc1N=NC(=O)NNc1cc([N+](=O)[O-])ccc1C`, the EC50 is greater than 200 µM and the IC50 amounted to 32.4 µM. The corresponding values for `O=C(O)[C@@H]1CSCN1C(=O)c1cccnc1SSc1ncccc1C(=O)N1CSC[C@H]1C(=O)O` are greater than 200 µM and greater than 200 µM.

With `COc1nc2nc(C(O)C(O)CO)cnc2c(=O)n1C` (centres undefined), the EC50 is greater than 891 µM, the outcome was inactive and the IC50 is greater than 891 µM. On to `CCOC(=O)/C(=C1/Nc2ccccc2S1)c1ncnc2nc[nH]c12`, for which the outcome was inactive. Turning to `CCCCC1N=CNc2c1ccc1c2[nH]c2ccccc21` (centres undefined), the EC50 is greater than 25.7 µM and the IC50 was found to be 6.17 µM. Consider `CCOC(=O)c1cn(C)c2c1C(=O)C(C(=O)OCC)CCN2C(=O)OCC` (centres undefined), for which the EC50 is greater than 240 µM and the IC50 was greater than 240 µM.

On to `CCN(CC)CCOc1ccc(/C(C#N)=C/c2ccc(SC(C)C)cc2)cc1`, for which the EC50 was greater than 100 µM and the IC50 was found to be 1.41 µM. `O=c1c(O)cccc2cc(O)c(O)c(O)c12`: the EC50 was greater than 427 µM and the IC50 turned out to be 23.4 µM.

The compound `O=C(O)c1ccc(C(=O)c2ccccc2)c(C(=O)O)c1` yielded an EC50 greater than 200 µM and an IC50 greater than 200 µM. Turning to `CCOC(=O)c1c(N)sc2c1C(C)(C(=O)OCC)CC2` (centres undefined), the EC50 was greater than 200 µM and the IC50 is 141 µM. As for `CC(C)=CC1CC(=O)C1(C)Sc1ccccc1` (centres undefined), the EC50 was greater than 40.7 µM and the IC50 was greater than 40.7 µM. On to `O=C1COc2cc3c(cc2N1)SCCC(=O)N3`, for which the EC50 is greater than 39.8 µM and the IC50 is greater than 39.8 µM. Regarding `CN1C(=O)CN2CCc3ccccc3C2c2cc(Cl)ccc21` (centres undefined), the EC50 was greater than 200 µM and the concentration for half-maximal inhibition (IC50) was 129 µM. In the case of `O=c1[nH]c(Nc2ccc(Br)c(C(F)(F)F)c2)nc2nc[nH]c12`, the EC50 is greater than 151 µM and the IC50 worked out at 28.2 µM. As to `NC(=S)C(=S)N/C=C/c1nc2ccccc2[nH]c1=O`, the EC50 was greater than 200 µM and the IC50 was 7.94 µM.

For `S=c1[nH]nc(Cc2ccccc2)c(=S)[nH]1`, the outcome was inactive. Take `CC(N)C(=O)NC(C)C(=O)NC(C)C(=O)NC(C)C(=O)NC(C)C(=O)NC(C)C(=O)O` (centres undefined): the EC50 was greater than 100 µM, the outcome was inactive and the IC50 was greater than 100 µM. For `CS(=O)(=O)CC1=Nc2nnc(CCCCCCCc3nnc4n3C(=O)C(CS(C)(=O)=O)=N4)n2C1=O`, the EC50 was greater than 10 µM and the IC50 is greater than 10 µM. For `COC(=O)CCC(C)C1CCC2C3=CC(=O)C4CC(OC(C)=O)CCC4(C)C3CC(OC(C)=O)C21C` (centres undefined), the EC50 is greater than 51.3 µM and the IC50 was 37.2 µM. For the compound `CCCCCCCCCCCCCC(=O)OCC1OC(n2cc(C)c(=O)[nH]c2=O)CC1N=[N+]=[N-]` (centres undefined), the EC50 was 0.00372 µM and the IC50 is 102 µM. Taken in the same sequence, the figures for `Cc1ccc2c(c1)C(=O)C1(Cc3ccccc3C1=O)C2` (centres undefined) were greater than 200 µM and greater than 200 µM. The corresponding values for `C#CCC(O)c1ccc(OC)c(OCc2ccccc2)c1` (centres undefined) are greater than 200 µM and 69.2 µM.

Take `CN(C)CCCNC(=O)c1cc(NC(=O)c2cc(NC(=O)c3cc(NC(=O)c4ccccc4C(=O)O)cn3C)cn2C)cn1C`: the EC50 was greater than 200 µM and the IC50 is greater than 200 µM. For the compound `O=c1n(-c2ccccc2)c(=O)n2n1C1CCC2CC1`, the EC50 is greater than 200 µM and the IC50 is greater than 200 µM. Consider `CC1(CO)OC(n2cc(C(=O)NC(=O)OCc3ccccc3)c(=O)[nH]c2=O)CC1O` (centres undefined), for which the EC50 was greater than 603 µM and the IC50 came to 372 µM.

As for `C[C@H]1CC[C@@H]2[C@@H](C)[C@H]3[C@H](C[C@H]4[C@@H]5CC=C6C[C@@H](O)CC[C@]6(C)[C@H]5C[C@H](O)[C@]34C)N2C1`, the result was inactive. Turning to `COC(=O)C(C(=O)C(=O)Nc1ccc(C(F)(F)F)cc1[N+](=O)[O-])c1csc(-n2nc(-c3ccccc3)cc2-c2ccccc2)n1` (centres undefined), the EC50 is greater than 53.7 µM and the IC50 was 39.8 µM.

Take `Clc1ccc(CN2COc3c(ccc4cccnc34)C2)cc1Cl`: the EC50 was greater than 200 µM and the concentration for half-maximal inhibition (IC50) stood at 1.29 µM. Taken in the same sequence, the figures for `C=C1CC[C@@H](O)[C@]2(C)CC[C@@H](C(C)(C)O)[C@@H](OC3OC(CO)C(O)C(O)C3O)C12` (some centres undefined) were greater than 288 µM and greater than 288 µM. With `COc1ccc(N=c2ssc(SC)c2-c2ccccc2)cc1`, the EC50 was greater than 200 µM and the IC50 stood at 46.8 µM.

On to `Cc1nc(N)sc1C(=O)/C=C\c1ccc2c(c1)OCO2`, for which the EC50 is greater than 871 µM and the concentration for half-maximal inhibition (IC50) was 437 µM.

With `CCOC(=O)c1cc2cc3c4c(c2oc1=O)CCCN4CCC3`, the EC50 was greater than 115 µM and the 50% inhibitory concentration (IC50) was greater than 115 µM. Turning to `Cc1ccccc1C1(O)c2ccccc2Oc2ccccc21`, the 50% effective concentration (EC50) was greater than 200 µM and the IC50 amounted to 13.8 µM.

As for `C/C(=N\NC(N)=O)c1sc(-c2nc(C)c(/C(C)=N/NC(N)=O)s2)nc1C`, the EC50 is greater than 9.55 µM and the IC50 was greater than 9.55 µM. Regarding `C/C(=C/C(=O)Nn1c(Cc2ccccc2)n[nH]c1=O)C(=O)O`, the EC50 was greater than 200 µM and the IC50 was greater than 200 µM. Turning to `O=C1CCCC2=C1CC1=C(CCCC1=O)N2c1cccc([N+](=O)[O-])c1`, the EC50 is greater than 186 µM and the IC50 was 170 µM.

On to `CCCCCCCC1C(C)c2c([nH]c3ccccc23)C2C(=O)N(c3ccc(OC)cc3)C(=O)C21` (centres undefined), for which the EC50 is greater than 200 µM and the IC50 came to 10.2 µM.

Take `COc1ccc(-c2sc(/N=C/c3cc(OC)c(OC)c(OC)c3)c(C#N)c2C)cc1OC`: the EC50 was greater than 200 µM and the IC50 came to 11.2 µM. The corresponding values for `O=C1C=CC[C@H]2O[C@@H](COC(=O)Cc3ccccc3)C[C@H]2O1` are greater than 200 µM and 34.7 µM. Consider `CC1=Nn2c(nc3sc4c(c3c2=O)CCCC4)SC1`, for which the outcome was inactive. With `O=C(CC1(O)C(=O)Nc2c(Cl)cc(Cl)cc21)c1ccc(Br)cc1Br` (centres undefined), the EC50 was greater than 51.3 µM and the IC50 came to 44.7 µM. Taken in the same sequence, the figures for `COc1ccc(NC(C)c2ccncc2)cc1` (centres undefined) were greater than 200 µM and greater than 200 µM. The corresponding values for `CSC(=Nc1ccccc1)c1c(C)[nH]n(-c2ccccc2)c1=O` are greater than 200 µM and 126 µM. The corresponding values for `CC(C)(C)OC(=O)/N=C/c1c(O)c2ccccc2oc1=O` are greater than 200 µM and 30.2 µM. Regarding `Cc1cccc(N(C=O)c2c(O)nc(N)[nH]c2=O)c1`, the EC50 was greater than 200 µM and the IC50 is greater than 200 µM. For the compound `COc1ccc2cc1Oc1ccc(cc1)C[C@H]1c3cc(c(OC)cc3CCN1C)Oc1c(O)c(OC)cc3c1[C@H](C2)N(C)CC3`, the result was inactive. Take `c1cc(-c2ccsc2-c2ccsc2)cs1`: the EC50 is greater than 200 µM and the half-inhibitory concentration (IC50) was found to be 52.5 µM. The corresponding values for `CN1CCN(Cc2ccccc2)CC1CC#N` (centres undefined) are 1.95 µM and greater than 200 µM.
